In US20220390432A1, “METHODS OF CHARACTERIZING AND UTILIZING AGENT-CONDENSATE INTERACTIONS” (Whitehead Institute for Biomedical Research, priority 2019, published 2022):
Entries after “also recorded” stand apart in the source; their conditions may differ.

What was measured:
[1] = Droplet formation assay of small molecule alone without any protein; format: physicochemical; conditions: without any protein added
Method: Recombinant BFP, GFP, or mCherry fusion proteins were concentrated and desalted to an appropriate protein concentration and 125 mM NaCl using Amicon Ultra centrifugal filters (30K MWCO, Millipore). […] […] The protein solution was immediately loaded onto glass bottom 384 well plate (Cellvis P384-1.5H-N) and imaged with an Andor confocal microscope with a 150× objective. Unless indicated, images presented are of droplets settled on the glass coverslip.

[2] = system: MED1 condensate at the LAC array in U2OS cells; test: LAC binding assay, FLTX1 enrichment at tethered MED1 or HP1α; format: cell-based, human; conditions: ESR1 not expressed, 1 uM FLTX1
Method: Constructs were assembled by NEB HIFI cloning in pSV2 mammalian expression vector containing an SV40 promoter driving expression of a mCherry-LacI fusion protein. The intrinsically disordered region of MED1, HP1α, or the activation domain of ESR1 was fused by the c-terminus to this recombinant protein, joined by the linker sequence […] (SEQ ID NO: 16). For experiments comparing FLTX1 enrichment at the array, U20S-Lac cells were plated onto chambered coverglass (1.5 Borosilicate Glass, Nunc Lab-Tek, 155409) and transfected with either MED1 IDR or HP1α constructs with lipofectamine 3000 (Thermofisher L3000015). After 24 hours, cells were treated with either 1 uM FLTX1 or vehicle (DMF). […]
For analysis of Lac array data comparing MED1 or HP1α tethered, a region of interest was called using the signal in the Lac array (561 channel). The average fluorescent signal for FLTX1 (488 channel) was then measured in the region of interest and divided by the average fluorescence in the region of interest at the Lac array. […] For analysis of Lac array data for MED1 overexpression, enrichment was calculated by dividing the average fluorescent signal for MED1 immunofluorescence at the region of interest, defined by the ER tethered at the lac array, by MED1 immunofluorescence signal at a random nuclear region.

[3] = target: T1, MED1 (Homo sapiens, UniProt Q15648); test: In vitro droplet assay, small molecule partitioning into MED1 condensates; format: binding; conditions: for partitioning / incorporation into MED1 droplets: confocal fluorescence, Example 2: 125 mM NaCl, 10% PEG, 10 μM protein, fluorescent or fluorescently labeled drug
T1 construct: MED1—amino acids 600-1581; 6xHis (N); made in house; host or cells: LOBSTR cells (E. coli)
T1 sequence (Q15648 600-1581): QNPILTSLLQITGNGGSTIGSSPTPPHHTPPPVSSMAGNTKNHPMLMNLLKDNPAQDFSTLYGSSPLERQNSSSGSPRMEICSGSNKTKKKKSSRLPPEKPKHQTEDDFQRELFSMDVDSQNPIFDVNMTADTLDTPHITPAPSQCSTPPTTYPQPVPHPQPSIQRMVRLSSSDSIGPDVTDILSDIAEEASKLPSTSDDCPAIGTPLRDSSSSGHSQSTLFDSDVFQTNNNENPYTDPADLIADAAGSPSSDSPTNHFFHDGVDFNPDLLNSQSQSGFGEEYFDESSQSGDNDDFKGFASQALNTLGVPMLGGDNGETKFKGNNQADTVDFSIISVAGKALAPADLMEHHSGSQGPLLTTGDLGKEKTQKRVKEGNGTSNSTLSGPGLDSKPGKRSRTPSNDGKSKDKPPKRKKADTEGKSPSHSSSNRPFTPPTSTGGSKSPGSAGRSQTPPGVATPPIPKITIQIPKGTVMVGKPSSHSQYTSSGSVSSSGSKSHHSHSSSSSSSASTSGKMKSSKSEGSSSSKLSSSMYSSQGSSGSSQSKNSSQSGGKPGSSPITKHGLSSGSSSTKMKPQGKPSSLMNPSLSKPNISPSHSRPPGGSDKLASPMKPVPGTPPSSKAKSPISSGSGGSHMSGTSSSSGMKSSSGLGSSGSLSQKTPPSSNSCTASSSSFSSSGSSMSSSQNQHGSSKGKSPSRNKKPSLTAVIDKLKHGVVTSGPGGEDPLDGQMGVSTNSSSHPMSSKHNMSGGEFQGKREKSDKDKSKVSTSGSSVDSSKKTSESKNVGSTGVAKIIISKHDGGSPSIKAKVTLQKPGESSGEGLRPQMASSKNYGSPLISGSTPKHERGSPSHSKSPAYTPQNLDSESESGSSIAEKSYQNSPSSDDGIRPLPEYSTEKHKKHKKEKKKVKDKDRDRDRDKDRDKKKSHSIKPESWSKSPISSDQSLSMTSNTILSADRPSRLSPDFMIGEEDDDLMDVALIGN
Method: (§1) Recombinant BFP, GFP, or mCherry fusion proteins were concentrated and desalted to an appropriate protein concentration and 125 mM NaCl using Amicon Ultra centrifugal filters (30K MWCO, Millipore). Recombinant protein was added too. […] The protein solution was immediately loaded onto glass bottom 384 well plate (Cellvis P384-1.5H-N) and imaged with an Andor confocal microscope with a 150× objective. Unless indicated, images presented are of droplets settled on the glass coverslip.
(§2) Drug and small molecule concentrations used in the droplet experiments are as follows:
To analyze in vitro droplet experiments, custom Python scripts using the scikit-image package were written to identify droplets and characterize their size, shape and intensity. Droplets were segmented from average images of captured channels on various criteria: (1) an intensity threshold that was three s.d. above the mean of the image; (2) size thresholds (20 pixel minimum droplet size); and (3) a minimum circularity (circularity=4π·areaperimeter2) (circularity=4π·areaperimeter2) of 0.8 (1 being a perfect circle). After segmentation, mean intensity for each droplet was calculated while excluding pixels near the phase interface, and background-corrected by subtracting intensity of dark images of droplet formation buffer only. Droplets identified in the channel of the fluorescent protein from ten independent fields of view were quantified for each experiment. The maximum intensity of signal within the droplets was calculated for each channel, the maximum intensity in the drug channel was termed “maximum drug intensity”. To obtain the intensity of drug or dye alone in the diffuse state (termed “diffuse drug intensity”), the compound was added to droplet formation buffer at same concentration used in the droplet assay. This was then imaged on a confocal fluorescent microscope. The resulting image was processed in FIJI to obtain the fluorescent intensity of the field. To obtain the fluorescent intensity of protein droplets that bleed through in the drug channel (termed “background intensity”) protein droplets were imaged in the fluorescent channel in which the drug fluoresces and processed as above to obtain the average maximum intensity within the droplet across 10 images. The enrichment ratio was obtained by the following formula [(maximum drug intensity)−(background intensity)]/(diffuse drug intensity). The box plots show the distributions of all droplets. Each dot represents an individual droplet.

[4] = target: T2, HP1α (Homo sapiens, UniProt P45973); test: In vitro droplet assay, small molecule partitioning into HP1α condensates; format: binding
T2 construct: HP1α—full length, amino acids 1-191; 6xHis (N); made in house; host or cells: LOBSTR cells (E. coli)
T2 sequence (P45973 whole entry, the tested form may be a part): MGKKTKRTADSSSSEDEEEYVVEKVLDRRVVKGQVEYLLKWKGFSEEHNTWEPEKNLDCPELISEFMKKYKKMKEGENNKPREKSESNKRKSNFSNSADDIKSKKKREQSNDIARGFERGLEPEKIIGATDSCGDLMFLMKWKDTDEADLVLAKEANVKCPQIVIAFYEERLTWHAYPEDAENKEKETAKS
Method: as §1, §2
(§3) To analyze in vitro droplet experiments, custom Python scripts using the scikit-image package were written to identify droplets and characterize their size, shape and intensity. […] After segmentation, mean intensity for each droplet was calculated while excluding pixels near the phase interface, and background-corrected by subtracting intensity of dark images of droplet formation buffer only. Droplets identified in the channel of the fluorescent protein from ten independent fields of view were quantified for each experiment. The maximum intensity of signal within the droplets was calculated for each channel, the maximum intensity in the drug channel was termed “maximum drug intensity”. […]

[5] = system: MED1 genomic occupancy in HCT116 cells; test: MED1 ChIP-seq in HCT116 cells; format: cell-based, human; conditions: JQ1 for 24 hours
[6] = system: BRD4 at super-enhancers; test: Super-enhancers versus typical enhancers, gene expression and BRD4 genomic occupancy; format: cell-based
[7] = system: platinated DNA at MYC locus in HCT116 cells; test: Immunofluorescence with MYC DNA FISH after JQ1 then cisplatin; format: cell-based, human; conditions: 1 μM JQ1 24 hours, then 50 μM cisplatin 6 hours
[8] = system: MED1, BRD4, and POL2 condensates in HCT116 colon cancer cell lines; test: Small molecule effects on transcriptional condensates in GFP-tagged HCT116 cells; format: cell-based, human; conditions: for effect on transcriptional condensates: MED1-GFP, BRD4-GFP, POL2-GFP HCT116
Source text: HCT116 colon cancer cell lines endogenously tagged with MED1-GFP, BRD4-GFP, POL2-GFP, or HP1a-GFP (Mock), all forming condensates in the nucleus.

[9] = target: T3, NPM1 (Homo sapiens, UniProt P06748); test: In vitro droplet assay, small molecule partitioning into NPM1 condensates; format: binding; conditions: 125 mM NaCl, 10% PEG, 10 μM protein
T3 construct: NPM1—full length, amino acids 1-294; 6xHis (N); made in house; host or cells: LOBSTR cells (E. coli)
T3 sequence (P06748 whole entry, the tested form may be a part): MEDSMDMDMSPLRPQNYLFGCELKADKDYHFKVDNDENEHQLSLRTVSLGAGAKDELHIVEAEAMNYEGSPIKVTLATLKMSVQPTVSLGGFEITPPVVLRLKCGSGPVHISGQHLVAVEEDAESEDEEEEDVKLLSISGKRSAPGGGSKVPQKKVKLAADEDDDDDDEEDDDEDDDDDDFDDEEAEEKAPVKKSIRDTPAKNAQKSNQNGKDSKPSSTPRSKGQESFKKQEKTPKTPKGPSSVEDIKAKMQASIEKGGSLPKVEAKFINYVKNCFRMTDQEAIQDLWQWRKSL
Method: as §1, §2, §3

[10] = target: T4, MED1 condensates (Homo sapiens, UniProt Q15648); test: Determination of partitioning by spectrophotometry and quantitative phase microscopy; format: binding; conditions: uv spectroscopy of drug remaining in solution plus condensate volume estimate
T4 construct: MED1—amino acids 600-1581; 6xHis (N); made in house; host or cells: LOBSTR cells (E. coli)
T4 sequence (Q15648 600-1581): as the sequence (Q15648 600-1581) above
Source text: Here, an expression is derived briefly for the partition coefficient of a client molecule into a condensed phase in terms of quantities that are readily measurable experimentally. A sample composed of two coexisting phases is considered, named dilute and condensed, with volume fractions ϕdilute and […]. If a client molecule (e.g. a drug) is also present in the sample at an average concentration of ctotal, then mass conservation requires that
the ratio is estimated ctotal/cdilute from fluorescence spectroscopy measurements, as described in a subsequent section, while ϕcond, it is inferred from the lever rule (M. Rubinstein, R. H. Colby, Polymer Phyics (Oxford University Press, 2003) as follows: denoting the concentration of scaffold protein (e.g. MED1) by s, mass conservation gives stotal=sdiluteϕdilute+scondϕcond, in analogy with Eq. 1. Again using the requirement that the volume fractions of coexisting phases sum to 1, this can be rearranged to yield
where stotal and sdilute are measured spectrophotometrically from optical absorbance at 280 nm, and scond is measured from quantitative phase microscopy, using a coherence-controlled holographic microscope (Q-Phase, Telight (formerly TESCAN), Bmo, CZ) equipped with 40× dry objectives (NA=0.90). […]
where A is the measured absorbance (in Absorbance Units (AU)), I0 is the intensity of the incident light at a given wavelength, I is the transmitted intensity, L the path length through the sample, and c the concentration of the absorbing species. […] The partitioned drug was measured by using spin down assay. […] The supernatant was collected and measured the concentrations of the drug. The partitioned drug was calculated by subtracting from the total known concentration of drug added.
Quantitative phase measurements were performed using a coherence-controlled holographic microscope (Q-Phase, Telight (formerly TESCAN), Brno, CZ) equipped with 40× dry objectives (NA=0.90) as follows. […]
Q-PHASE software was used to construct compensated phase images from acquired holograms, which were subsequently analyzed in MATLAB using custom code. […]

[11] = system: nucleolus; conditions: references (35, 36); cited from earlier work
[12] = target: T5, FIB1 (Homo sapiens, UniProt P22087); test: In vitro droplet assay, small molecule partitioning into FIB1 condensates; format: binding; conditions: 125 mM NaCl, 10% PEG, 10 μM protein
T5 construct: FIB1—full length, amino acids 1-321; 6xHis (N); made in house; host or cells: LOBSTR cells (E. coli)
T5 sequence (P22087 whole entry, the tested form may be a part): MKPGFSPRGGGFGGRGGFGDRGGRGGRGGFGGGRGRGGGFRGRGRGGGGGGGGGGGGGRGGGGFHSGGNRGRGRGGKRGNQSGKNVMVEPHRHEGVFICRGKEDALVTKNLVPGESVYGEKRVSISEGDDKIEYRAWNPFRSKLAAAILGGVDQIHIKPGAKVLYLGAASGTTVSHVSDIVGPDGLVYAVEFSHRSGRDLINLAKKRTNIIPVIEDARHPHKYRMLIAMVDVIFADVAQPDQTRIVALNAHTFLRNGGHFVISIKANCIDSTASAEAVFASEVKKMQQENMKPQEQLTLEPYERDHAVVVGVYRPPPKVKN
Method: as §1, §2, §3

Compound: CC/C(=C(\c1ccccc1)c1ccc(OCCN(C)c2ccc([N+](=O)[O-])c3nonc23)cc1)c1ccccc1 [FLTX1]
- droplet formation of small molecule alone [1]: diffuse fluorescent signal
- FLTX1 enrichment at MED1 condensate tethered to the LAC array [2]: concentrated FLTX1 at the site of the condensate; also recorded: concentrates in MED1 condensates in cells
- drug concentration in larger MED1 condensates ([3]; 20 μM (High) vs 5 μM (Low) MED1, 100 μM FLTX1): lower concentrations of the drug
- partitioning / incorporation into MED1 droplets [3]: concentrated preferentially in MED1 droplets; also recorded: incorporated into MED1 containing condensates; also recorded: incorporates into MED1 droplets
- partitioning / incorporation into HP1α droplets [4]: does not incorporate

Compound: Cc1sc2c(c1C)C(c1ccc(Cl)cc1)=N[C@@H](CC(=O)OC(C)(C)C)c1nnc(C)n1-2 [JQ1, (S)-tert-butyl 2-(4-(4-chlorophenyl)-2,3,9-trimethyl-6H-thieno[3,2-ƒ][1,2,4]triazolo[4,3-a][1,4]diazepin-6-yl)acetate]
- MED1 ChIP-Seq at MYC after JQ1 [5]: loss of MED1 loading
- BRD4 genomic occupancy, super-enhancers versus typical enhancers [6]: reduces BRD4 genomic occupancy in super-enhancers to a greater extent than typical enhancers
- sensitivity of gene expression by super-enhancers versus typical enhancers [6]: more sensitive
- platinated DNA at the MYC locus after JQ1 treatment [7]: concomitant reduction in platinated DNA at the MYC oncogene; also recorded: loss of signal for platinated DNA
- droplet formation of small molecule alone [1]: diffuse fluorescent signal
- effect on transcriptional condensates [8]: reduces the number of, or eliminates
- effect on transcriptional condensates, long exposure ([8]; long exposure (e.g., 24 hours)): genomic release and consolidation of condensates
- MED1 condensates after JQ1 ([8]; mEGFP-MED1 tagged HCT116 cells, JQ1 for 24 hours): loss of MED1 condensates; also recorded: diminution of MED1 condensates
- effect on transcriptional condensates, short exposure ([8]; short exposure (e.g., 5 minutes)): eviction of some condensate components

Compound: O=C1c2c(O)ccc(O)c2C(=O)c2c(NCCNCCO)ccc(NCCNCCO)c21 [Mitoxantrone]
- partitioning into NPM1 condensates [9]: concentrated
- droplet formation of small molecule alone [1]: diffuse fluorescent signal
- partition ratio in MED1 condensates [10]: approximately 100 fold
- effect on transcriptional condensates [8]: global dissolution of condensates; also recorded: cause condensate dissolution
- partitioning / incorporation into MED1 droplets [3]: concentrated; also recorded: immediately incorporate into MED1 droplets
- subcellular concentration [11]: concentrate in the nucleolus
- partitioning into FIB1 condensates [12]: concentrated
